# Assay results as given in publication PMC5902452, “In silico optimization of a guava antimicrobial peptide enables combinatorial exploration for peptide design” (Nature Communications, 2018).
# Peptide text beside a SMILES is read from it.
# Legend:
# [1] = tested on: Candida parapsilosis ATCC 22019; type: cell-based; conditions: ATCC 22019, 18 h
# Source text: (§2) Lysogeny Broth (LB) was used for cultures of Acinetobacter baumannii ATCC 19606, Enterococcus faecalis ATCC 29212, Escherichia coli ATCC 25922, Klebsiella pneumoniae ATCC 13883, Pseudomonas aeruginosa ATCC 27853, and S. aureus ATCC 25923. Brain Heart Infusion (BHI) broth was used for cultures of Listeria ivanovii Li 4pVS2 and Streptococcus pyogenes ATCC 19615. Yeast peptone dextrose (YPD) medium was used for Candida species (C. albicans ATCC 90028 and C. parapsilosis ATCC 22019). MH (Mueller Hinton) broth was used for suspend centrifuged culture of bacteria and yeasts in logarithmic phase to an A630 of 0.01 (~10^6 cfu mL^−1), except for S. pyogenes, L. ivanovii, and E. faecalis that were suspended in their respective growth medium. […] A microplate reader (UVM 340, Asys Hitech) was used to monitor the antimicrobial susceptibility by measuring the change in A630. […] Each experiment was performed in triplicate with positive (0.7% formaldehyde) and negative (without peptide) inhibition controls.
# [2] = tested on: Candida albicans ATCC 90028; type: cell-based; conditions: ATCC 90028, 18 h
# Source text: as §2
# [3] = tested on: C. albicans clinical isolate; assay: Antibiofilm assay (planktonic growth and biofilm formation, crystal violet); type: cell-based, Candida albicans
# Method: (§1) Overnight cultures of microorganisms [E. coli 0157, methicillin-resistant S. aureus (MRSA), K. pneumoniae 1825971, or C. albicans clinical isolate obtained from a blood culture maintained at LACEN (Laboratório Central de Saúde do Distrito Federal, a Brazilian reference laboratory for clinical isolates in Brasília, Brazil)] grown in LB broth (BD Difco) were diluted 1 in 100 in LB and Todd-Hewitt broth (BD Difco) or BM2 minimal medium [62 mM potassium phosphate buffer, pH 7.0, 7 mM (NH4)2SO4, 2 mM MgSO4, 10 μM FeSO4, 0.5% glucose], and 100 μL per well was added into 96-well round-bottom microplates. Absorbance at 600 nm was used to assess the planktonic cell growth. Non-adherent planktonic cells were removed from microtiter wells and washed twice with deionized water. Adherent cells were stained with 0.1% crystal violet for 20 min. The microplate wells were washed twice with deionized water, air dried, and solubilized with 110 μL of 70% ethanol. […] Biofilm formation was assessed by measuring the absorbance at 600 nm using a microplate reader (Bio-Tek Instruments, Inc., USA). The microdilution method for cationic peptides was used to determine the MIC for planktonic cells. Three biological replicates were performed for each experiment involving eight technical replicates.
# [4] = tested on: P. aeruginosa strain PAO1; assay: Scarification skin infection mouse model; type: in vivo, female CD-1 mice
# Method: P. aeruginosa strain PAO1 was grown to an optical density at 600 nm (OD600) of 1 in tryptic soy broth medium. Subsequently cells were washed twice with sterile PBS, and resuspended to a final concentration of 5 × 10^7 CFU in 50 μL. To generate skin infection, female CD-1 mice (6 weeks old) were anesthetized with isoflurane and had their backs shaved. A superficial linear skin abrasion was made with a needle in order to damage the stratum corneum and upper layer of the epidermis. Five minutes after wounding, an aliquot of 50 μL containing 5 × 10^7 CFU of bacteria in PBS was inoculated over each defined area containing the scratch with a pipette tip. One day after the infection, peptides were administered to the infected area. Animals were euthanized and the area of scarified skin was excised 2 and 4 days post-infection, homogenized using a bead beater for 20 min (25 Hz), and serially diluted for CFU quantification. Two independent experiments were performed with four mice per group in each case. Statistical significance was assessed using a two-way ANOVA. Animals were maintained in accordance with the Guide for the Care and Use of Laboratory Animals in an AAALAC-accredited facility. All procedures were approved by the MIT’s Institutional Animal Care and Use Committee (IACUC), protocol number 1016-064-19.
# [5] = tested on: Klebsiella pneumoniae ATCC 13883; type: cell-based; conditions: ATCC 13883, 18 h
# Source text: as §2
# E. coli ATCC 25922 [6] = type: cell-based, Escherichia coli
# Method: Exponentially growing bacteria in LB were harvested by centrifugation, washed three times in PBS and suspended in the same buffer to a final concentration of 10^7 cfu mL^−1. One hundred microliters of this bacterial suspension was incubated with a dose of peptide corresponding to twofold the MIC. Then, aliquots of 10 µL were withdrawn at different times, diluted in LB, and spread onto LB agar plates. The cfu were counted after overnight incubation at 37 °C.
# E. coli ATCC 25922 [7] = assay: SYTOX green uptake assay (membrane permeabilization); type: cell-based, Escherichia coli; conditions: 12.5 µM (twofold above the MIC), 1 h, 37 °C, PBS
# Method: SG is impermeant to live cells and when the cell membrane is damaged, this dye penetrates into the cell and binds to intracellular DNA, due to its high-affinity to nucleic acids, leading to an increase in fluorescence. Exponentially growing bacteria (6 × 10^5 cfu mL^−1) were resuspended in PBS after centrifugation (1000 × g, 10 min, 4 °C) and washing steps. About 792 μL of the bacterial suspension was pre-incubated with 8 μL of 100 μM SG during 30 min at 37 °C in the dark. […] Results correspond to a representative experiment with negative (PBS) and positive (melittin) controls. Three independent experiments were performed.
# [8] = tested on: methicillin-resistant S. aureus (MRSA); assay: Antibiofilm assay; type: cell-based, Staphylococcus aureus
# Method: as §1
# P. aeruginosa ATCC 27853 = assay: SEM-FEG imaging; type: cell-based, Pseudomonas aeruginosa; conditions: 25 µM (MIC) and 50 µM, 1 h, 37 °C
# Method: Bacteria in mid-logarithmic phase were collected by centrifugation ([…], 10 min, 4 °C), washed twice with PBS, and suspended in the same buffer at a density of 2 × 10^7 cfu mL^−1. […] As a negative control, cells were incubated in buffer without peptide. Microbial cells were then fixed with 2.5% glutaraldehyde, homogenized by gently inverting the tubes, and stored at 4 °C prior to SEM-FEG analysis. A Hitachi SU-70 Field Emission Gun Scanning Electron Microscope was used to record SEM-FEG images. The samples (gold plates where 20 µL of inoculum were deposited and dried under nitrogen) were fixed on an alumina SEM support with a carbon adhesive tape and were observed without metallization. In Lens Secondary electron detector (SE-Lower) was used to characterize our samples. The accelerating voltage was 1 kV and the working distance was around 15 mm. At least five to ten different locations were analyzed on each surface, leading to the observation of a minimum of 100 single cells.
# [9] = tested on: Escherichia coli ATCC 25922; assay: Antimicrobial activity, MIC by twofold serial dilution; type: cell-based; conditions: purified peptide; MH broth, 18 h, 37 °C, A630; average of three independent experiments in triplicate
# Source text: as §2
# [10] = tested on: Acinetobacter baumannii ATCC 19606; assay: as above; type: cell-based; conditions: purified peptide; MH broth, 18 h, 37 °C, A630; average of three independent experiments in triplicate
# Source text: as §2
# [11] = tested on: Streptococcus pyogenes ATCC 19615; type: cell-based; conditions: ATCC 19615, 18 h
# Source text: as §2
compound,measurement,setting,value
CC[C@H](C)[C@H](NC(=O)[C@H](CCCNC(=N)N)NC(=O)[C@H](Cc1ccc(O)cc1)NC(=O)CNC(=O)[C@H](Cc1ccc(O)cc1)NC(=O)[C@H](CCCNC(=N)N)NC(=O)[C@H](CC(C)C)NC(=O)[C@H](C)NC(=O)[C@H](CCC(N)=O)NC(=O)[C@H](CCC(=O)O)NC(=O)[C@@H](NC(=O)[C@H](CCC(N)=O)NC(=O)[C@H](CCCNC(=N)N)NC(=O)[C@H](CCSC)NC(=O)[C@H](Cc1ccc(O)cc1)NC(=O)[C@H](CCC(N)=O)NC(=O)[C@@H](N)CCCNC(=N)N)[C@@H](C)CC)C(=O)N[C@@H](CO)C(=O)N[C@@H](CCCNC(=N)N)C(=O)N[C@@H](CCCNC(=N)N)C(N)=O [Guavanin 2] (H-RQYMRQIEQALRYGYRISRR-NH2),Active concentration (MIC),[1],≥50 µM
same,Active concentration (MIC),[2],>200 µM
same,antibiofilm activity,[3],able to reduce C. albicans biofilms
same,concentration from which biofilm formation is inhibited (p<0.05),"[3]; crystal violet, Student's t-test, three replicates",32 µg/mL
same,concentration from which planktonic cells are affected (p<0.05),"[3]; planktonic cells not eliminated, Student's t-test, three replicates",16 µg/mL
same,reduction in bacterial counts,"[4]; 6.25 μg mL−1 (lowest dose) applied to infected area 24 h after infection, after 4 days",3 log
same,effect on CFU counts / bacterial load (two-way ANOVA),"[4]; doses 6.25, 25 and 100 µg mL−1, 4 days post-infection, two experiments, four mice per group",significantly reduced CFU counts
same,Active concentration (MIC),[5],80 µM
same,colony-forming units remaining (from 10^7),"E. coli ATCC 25922 [6]; 12.5 µM (twofold above the MIC), 120 min",~ 10^5 colony-forming units
same,"killing speed relative to [I^5, R^8] mastoparan","E. coli ATCC 25922 [6]; time–kill, E. coli",eightfold slower
same,SYTOX Green influx (membrane permeabilization),E. coli ATCC 25922 [7],only a slow and very small amount of dye influx
same,antibiofilm activity,[8],only able to reduce C. albicans biofilms
same,membrane effect seen in SEM-FEG images,P. aeruginosa ATCC 27853,membrane damage (deformations/indentations)
same,Active concentration (MIC),[9],6.25 µM
same,Active concentration (MIC),[10],6.25 µM
same,Active concentration (MIC),[11],50 µM
